Legend:
androgen receptor (AR) = molecular target: T1, androgen receptor (AR) (Homo sapiens, UniProt P10275, T878A); assay: PSA (6.1 kb)-luciferase reporter assay in LNCaP cells; assay type: cell-based; details: 5 μg/ml
T1 construct: endogenous in cells; host or cells: LNCaP human prostate cancer cells
T1 sequence (P10275 1-920 T878A): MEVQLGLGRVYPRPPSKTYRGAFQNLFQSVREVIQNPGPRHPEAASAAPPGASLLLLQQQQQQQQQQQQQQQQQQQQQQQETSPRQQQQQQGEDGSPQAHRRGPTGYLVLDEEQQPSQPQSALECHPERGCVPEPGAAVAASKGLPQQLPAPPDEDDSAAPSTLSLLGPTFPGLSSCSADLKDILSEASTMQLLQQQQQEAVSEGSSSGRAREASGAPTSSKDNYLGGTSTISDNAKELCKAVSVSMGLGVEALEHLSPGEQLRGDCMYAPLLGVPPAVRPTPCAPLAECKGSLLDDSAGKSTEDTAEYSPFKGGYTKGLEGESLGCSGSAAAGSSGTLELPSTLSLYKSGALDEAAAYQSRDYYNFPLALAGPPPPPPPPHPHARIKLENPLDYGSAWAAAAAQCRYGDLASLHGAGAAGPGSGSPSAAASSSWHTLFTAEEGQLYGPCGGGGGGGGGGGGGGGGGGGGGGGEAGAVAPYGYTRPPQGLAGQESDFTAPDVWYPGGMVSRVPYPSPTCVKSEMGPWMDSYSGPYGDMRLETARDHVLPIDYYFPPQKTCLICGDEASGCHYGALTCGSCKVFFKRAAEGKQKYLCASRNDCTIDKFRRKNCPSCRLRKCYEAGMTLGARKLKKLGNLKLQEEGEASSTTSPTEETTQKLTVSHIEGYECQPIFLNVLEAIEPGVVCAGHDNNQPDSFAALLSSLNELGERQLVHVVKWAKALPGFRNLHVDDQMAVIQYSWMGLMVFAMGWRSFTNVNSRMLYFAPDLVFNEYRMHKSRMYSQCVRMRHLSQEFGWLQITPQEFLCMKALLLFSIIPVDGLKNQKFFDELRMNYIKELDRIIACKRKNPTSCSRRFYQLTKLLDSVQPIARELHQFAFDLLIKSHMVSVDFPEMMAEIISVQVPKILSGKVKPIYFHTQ
Protocol: White bars represent no steroid (ethanol control). Wherein glucocorticoid receptor (GR) and progesterone receptor (PR).
The cells were harvested 24 hours later and analyzed for luciferase activity. The data is normalized to protein that was measured using Bradford assay.
Sequence similarities of amino acids in the AR with related human steroid receptors (glucocorticoid receptor (GR) and progesterone receptor (PR)) are significant in some domains such as the DNA-binding-domain (DBD). Although the AR-NTD shares less than 15% homology with the PR and GR, these receptors do interact with some of the same proteins such as SRC-1 (steroid receptor coactivator-1). […] Cells were co-transfected with expression plasmids for full-length hGR and PRβ and the relative reporter (i.e., pGR-Luc or PRE-E1b-Luc reporters). Cells were then treated with ethanol vehicle, dexamethasone (GR), 4-pregnene-3,20 dione (progesterone) (PR) followed by measurement of luciferase activity.
Activation of the endogenous AR was measured in LNCaP human prostate cancer cells by measuring an androgen-responsive reporter containing androgen response elements (AREs). The PSA (6.1 kb)-luciferase reporter gene construct contains several well-characterized AREs and is induced by androgen.

[1] = molecular target: T2, AR NTD-Gal4DBD chimera protein (Gal4DBD-AR1-558) (Homo sapiens, UniProt P10275); assay: FSK-induced transactivation of the AR NTD (Gal4-luciferase reporter in LNCaP cells); assay type: cell-based; details: 5 μg/ml, 1 hr pretreatment, FSK 50 μM for 24 h
T2 construct: co-transfected with the expression vector for Gal4DBD-AR1-558; expressed in transfected cells; host or cells: LNCaP cells
T2 sequence (P10275 1-558): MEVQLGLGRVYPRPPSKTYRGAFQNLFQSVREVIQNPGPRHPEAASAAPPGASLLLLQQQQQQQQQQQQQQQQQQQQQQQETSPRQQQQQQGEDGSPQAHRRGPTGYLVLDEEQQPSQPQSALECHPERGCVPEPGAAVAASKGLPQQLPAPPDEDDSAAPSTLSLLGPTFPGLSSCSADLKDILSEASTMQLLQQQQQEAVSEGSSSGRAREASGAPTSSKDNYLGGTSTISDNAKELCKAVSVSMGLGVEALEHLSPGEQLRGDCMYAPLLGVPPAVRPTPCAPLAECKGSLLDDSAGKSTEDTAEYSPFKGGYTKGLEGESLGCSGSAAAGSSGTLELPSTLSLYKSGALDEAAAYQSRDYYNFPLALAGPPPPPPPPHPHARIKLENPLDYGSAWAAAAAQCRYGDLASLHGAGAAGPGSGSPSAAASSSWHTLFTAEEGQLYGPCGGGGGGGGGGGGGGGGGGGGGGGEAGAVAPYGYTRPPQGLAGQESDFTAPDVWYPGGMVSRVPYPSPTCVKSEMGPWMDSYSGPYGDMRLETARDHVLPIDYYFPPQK
Protocol: Sintokamide A (CB3.1) (5 μg/ml) was tested for its ability to inhibit the AR NTD. LNCaP cells were co-transfected with the expression vector for Gal4DBD-AR1-558 and the complimentary 5XGal4UAS-luciferase reporter. Induction of this reporter by FSK is a measure of transactivation of the Gal4DBD-AR1-558 fusion protein (Sadar 1999 J. Biol. Chem. 274, 7777-7783).
To determine if CB3.1 blocked transactivation of the AR NTD, LNCaP cells were transfected with the plasmids for the AR NTD-Gal4DBD chimera protein and the Gal4-luciferase reporter and pretreated for 1 hr with CB3.1 (5 μg/ml) prior to addition of forskolin (FSK 50 μM) for an additional 24 h (see: Sadar et al. (1999) J. Biol. Chem. 274:7777-83).

Structure (SMILES): CCC(=O)N[C@H](C[C@H](C)C(Cl)(Cl)Cl)C(=O)N1C(=O)C=C(OC)[C@@H]1C[C@H](C)C(Cl)Cl [CB3.1, Sintokamide A]
- inhibition of R1881 induction of PSA (6.1)-luciferase (androgen receptor (AR); 1 hour pretreatment, R1881 1 nM, 24 hours): inhibition
- AR activity measured with the PSA (6.1) luciferase reporter (androgen receptor (AR); steroid 10 nM, 24 h): strongly inhibited
- FSK-induced transactivation of the AR NTD [1]: reduced FSK-induced transactivation of the AR NTD to baseline levels
